# From US20260207572A1, “METHODS AND COMPOSITIONS FOR TREATMENT OF SUBJECTS WITH HEPATIC IMPAIRMENTS” (ELEVAR THERAPEUTICS, INC., priority 2022, published 2026)
# Like-named read-outs stand apart in the source and are kept apart here.
# Assay: Phase 1 single-dose plasma pharmacokinetics in subjects with normal hepatic function, mild or moderate hepatic impairment
# Type: in vivo, human
# Settings: for Plasma concentration, Arithmetic Mean / Plasma concentration, Median: Predose; for AUC(0-t) / AUC(0-inf) / Cmax / Vd/F / half-life / Tmax / concentration at 0.5 h / concentration at 1 h / concentration at 2 h / concentration at 3 h / concentration at 4 h / concentration at 6 h / concentration at 8 h / concentration at 12 h / concentration at 16 h / concentration at 24 h / concentration at 36 h / concentration at 48 h: human, plasma, 200 mg
# From the text: Patients: 27 subjects were enrolled within the following groups based on their Child-Pugh (CP) classification score: • Group 1: Matched-control healthy subjects with normal hepatic function; • Group 2: Subjects with mild hepatic impairment (CP Class A, score of 5 or 6); • Group 3: Subjects with moderate hepatic impairment (CP Class B, score of 7 to 9).
# A parallel design strategy was adopted for the hepatic impairment groups. Each matched-control healthy subject (Group 1) was enrolled following the enrollment of a mild and/or moderate hepatic impairment subject and was demographically matched by age (±10 years), BMI (±20%), and sex to the enrolled hepatic impairment subject(s). Subjects with normal hepatic function were not matched to more than 1 hepatically-impaired subject within an impairment group; however, subjects with normal hepatic function could be matched to 1 subject from more than 1 hepatic impairment group.
# Other noncompartmental parameters could be reported.
# The paired t-test was performed separately for each hepatic impairment group and the corresponding matched healthy controls. Estimates of geometric mean ratios in primary PK parameters between each level of impaired hepatic function versus the matched healthy controls were presented along with the corresponding 90% confidence intervals (CIs) for the geometric mean ratios. The p-value assessing the difference between each impairment group and the healthy control group was presented.
# The PK analysis was conducted by Covance Early Clinical Biometrics using WinNonlin Version 8.1.
# [1] = Mild Hepatic Impairment, 200 mg single oral dose
# [2] = Moderate Hepatic Impairment, 200 mg single oral dose
# [3] = Normal Hepatic Function, 200 mg single oral dose
# [4] = po, Mild Hepatic Impairment, 200 mg single oral dose, read-out: Plasma concentration, Arithmetic Mean
# [5] = po, Mild Hepatic Impairment, 200 mg single oral dose, read-out: Plasma concentration, Geometric Mean
# [6] = po, Mild Hepatic Impairment, 200 mg single oral dose, read-out: Plasma concentration, Median
structure (smiles),measurement,setting,value
"N#CC1(c2ccc(NC(=O)c3cccnc3NCc3ccncc3)cc2)CCCC1 [Rivoceranib, N-[4-(1-cyanocyclopentyl)phenyl]-2-{[(pyridin-4-yl)methyl]amino} pyridine-3-carboxamide]","AUC0-∞, Geometric Mean",[1],2308.66 ng·h/mL
same,"CL/F, Arithmetic Mean",[1],103.183 L/h
same,"CL/F, Geometric Mean",[1],86.630 L/h
same,"CL/F, Median",[1],93.423 L/h
same,"Plasma concentration, Arithmetic Mean",[1],0.00 ng/mL
same,"Plasma concentration, Median",[1],0.00 ng/mL
same,"CL/F, Arithmetic Mean",[2],89.904 L/h
same,"CL/F, Geometric Mean",[2],81.335 L/h
same,"CL/F, Median",[2],77.251 L/h
same,"Plasma concentration, Arithmetic Mean",[2],0.00 ng/mL
same,"Plasma concentration, Median",[2],0.00 ng/mL
same,"CL/F, Arithmetic Mean",[3],68.404 L/h
same,"CL/F, Geometric Mean",[3],65.546 L/h
same,"CL/F, Median",[3],69.489 L/h
same,"Plasma concentration, Arithmetic Mean",[3],0.00 ng/mL
same,"Plasma concentration, Median",[3],0.00 ng/mL
same,AUC(0-t),"oral, Mild vs Normal: Mild hepatic impairment, paired analysis, read-out: AUC0-t, Geometric Least Squares Mean, Test",2080 ng·h/mL
same,AUC(0-inf),"oral, Mild vs Normal: Mild hepatic impairment, paired analysis, read-out: AUC0-∞, Geometric Least Squares Mean, Test",2520 ng·h/mL
same,Cmax,"oral, Mild vs Normal: Mild hepatic impairment, paired analysis, read-out: Cmax, Geometric Least Squares Mean, Test",182 ng/mL
same,AUC(0-t),"oral, Mild vs Normal: matched Normal hepatic function, paired analysis, read-out: AUC0-t, Geometric Least Squares Mean, Reference",2820 ng·h/mL
same,AUC(0-inf),"oral, Mild vs Normal: matched Normal hepatic function, paired analysis, read-out: AUC0-∞, Geometric Least Squares Mean, Reference",3020 ng·h/mL
same,Cmax,"oral, Mild vs Normal: matched Normal hepatic function, paired analysis, read-out: Cmax, Geometric Least Squares Mean, Reference",303 ng/mL
same,AUC(0-t),"oral, Moderate vs Normal: Moderate hepatic impairment, paired analysis, read-out: AUC0-t, Geometric Least Squares Mean, Test",2380 ng·h/mL
same,AUC(0-inf),"oral, Moderate vs Normal: Moderate hepatic impairment, paired analysis, read-out: AUC0-∞, Geometric Least Squares Mean, Test",2430 ng·h/mL
same,Cmax,"oral, Moderate vs Normal: Moderate hepatic impairment, paired analysis, read-out: Cmax, Geometric Least Squares Mean, Test",210 ng/mL
same,AUC(0-t),"oral, Moderate vs Normal: matched Normal hepatic function, paired analysis, read-out: AUC0-t, Geometric Least Squares Mean, Reference",2550 ng·h/mL
same,AUC(0-inf),"oral, Moderate vs Normal: matched Normal hepatic function, paired analysis, read-out: AUC0-∞, Geometric Least Squares Mean, Reference",2980 ng·h/mL
same,Cmax,"oral, Moderate vs Normal: matched Normal hepatic function, paired analysis, read-out: Cmax, Geometric Least Squares Mean, Reference",247 ng/mL
same,AUC(0-t),"po, Mild Hepatic Impairment, 200 mg single oral dose, read-out: AUC0-t, Arithmetic Mean",2550 ng·h/mL
same,AUC(0-t),"po, Mild Hepatic Impairment, 200 mg single oral dose, read-out: AUC0-t, Geometric Mean",2070 ng·h/mL
same,AUC(0-t),"po, Mild Hepatic Impairment, 200 mg single oral dose, read-out: AUC0-t, Median",1940 ng·h/mL
same,AUC(0-inf),"po, Mild Hepatic Impairment, 200 mg single oral dose, read-out: AUC0-∞, Arithmetic Mean",2840 ng·h/mL
same,AUC(0-inf),"po, Mild Hepatic Impairment, 200 mg single oral dose, read-out: AUC0-∞, Geometric Mean",2310 ng·h/mL
same,AUC(0-inf),"po, Mild Hepatic Impairment, 200 mg single oral dose, read-out: AUC0-∞, Median",2140 ng·h/mL
same,Cmax,"po, Mild Hepatic Impairment, 200 mg single oral dose, read-out: Cmax, Arithmetic Mean",291 ng/mL
same,Cmax,"po, Mild Hepatic Impairment, 200 mg single oral dose, read-out: Cmax, Geometric Mean",182 ng/mL
same,Cmax,"po, Mild Hepatic Impairment, 200 mg single oral dose, read-out: Cmax, Median",202 ng/mL
same,Vd/F,"po, Mild Hepatic Impairment, 200 mg single oral dose, read-out: VZ/F, Arithmetic Mean",1830 L
same,Vd/F,"po, Mild Hepatic Impairment, 200 mg single oral dose, read-out: VZ/F, Geometric Mean",1400 L
same,Vd/F,"po, Mild Hepatic Impairment, 200 mg single oral dose, read-out: VZ/F, Median",1100 L
same,half-life,"po, Mild Hepatic Impairment, 200 mg single oral dose, read-out: t1/2, Arithmetic Mean (converted)",13.3 ± 5.58 h
same,half-life,"po, Mild Hepatic Impairment, 200 mg single oral dose, read-out: t1/2, Geometric Mean (converted)",12.4 h
same,half-life,"po, Mild Hepatic Impairment, 200 mg single oral dose, read-out: t1/2, Median (converted)",12.3 h
same,Tmax,"po, Mild Hepatic Impairment, 200 mg single oral dose, read-out: tmax, Arithmetic Mean",3.6 h
same,Tmax,"po, Mild Hepatic Impairment, 200 mg single oral dose, read-out: tmax, Geometric Mean",2.8 h
same,Tmax,"po, Mild Hepatic Impairment, 200 mg single oral dose, read-out: tmax, Median",2.5 h
same,concentration at 0.5 h,[4],41.5 ng/mL
same,concentration at 0.5 h,[5],29.4 ng/mL
same,concentration at 0.5 h,[6],30.2 ng/mL
same,concentration at 1 h,[4],178 ng/mL
same,concentration at 1 h,[5],112 ng/mL
same,concentration at 1 h,[6],149 ng/mL
same,concentration at 2 h,[4],279 ng/mL
same,concentration at 2 h,[5],165 ng/mL
same,concentration at 2 h,[6],194 ng/mL
same,concentration at 3 h,[4],220 ng/mL
same,concentration at 3 h,[5],138 ng/mL
same,concentration at 3 h,[6],155 ng/mL
same,concentration at 4 h,[4],164 ng/mL
same,concentration at 4 h,[5],112 ng/mL
same,concentration at 4 h,[6],95.8 ng/mL
same,concentration at 6 h,[4],122 ng/mL
same,concentration at 6 h,[5],95.4 ng/mL
same,concentration at 6 h,[6],91.3 ng/mL
same,concentration at 8 h,[4],96 ng/mL
same,concentration at 8 h,[5],77.8 ng/mL
same,concentration at 8 h,[6],68.5 ng/mL
same,concentration at 12 h,[4],66.6 ng/mL
same,concentration at 12 h,[5],54.9 ng/mL
same,concentration at 12 h,[6],43.9 ng/mL
same,concentration at 16 h,[4],54.3 ng/mL
same,concentration at 16 h,[5],45.3 ng/mL
same,concentration at 16 h,[6],39.6 ng/mL
same,concentration at 24 h,[4],34.5 ng/mL
same,concentration at 24 h,[5],29 ng/mL
same,concentration at 24 h,[6],26 ng/mL
same,concentration at 36 h,[4],16.1 ng/mL
same,concentration at 36 h,[5],15.2 ng/mL
same,concentration at 36 h,[6],13.8 ng/mL
same,concentration at 48 h,[4],8.5 ng/mL
same,concentration at 48 h,[5],9.97 ng/mL
same,concentration at 48 h,[6],7.26 ng/mL
same,AUC(0-t),"po, Moderate Hepatic Impairment, 200 mg single oral dose, read-out: AUC0-t, Arithmetic Mean",2590 ng·h/mL
same,AUC(0-t),"po, Moderate Hepatic Impairment, 200 mg single oral dose, read-out: AUC0-t, Geometric Mean",2380 ng·h/mL
same,AUC(0-t),"po, Moderate Hepatic Impairment, 200 mg single oral dose, read-out: AUC0-t, Median",2450 ng·h/mL
same,AUC(0-inf),"po, Moderate Hepatic Impairment, 200 mg single oral dose, read-out: AUC0-∞, Arithmetic Mean",2660 ng·h/mL
same,AUC(0-inf),"po, Moderate Hepatic Impairment, 200 mg single oral dose, read-out: AUC0-∞, Geometric Mean",2460 ng·h/mL
same,AUC(0-inf),"po, Moderate Hepatic Impairment, 200 mg single oral dose, read-out: AUC0-∞, Median",2590 ng·h/mL
same,Cmax,"po, Moderate Hepatic Impairment, 200 mg single oral dose, read-out: Cmax, Arithmetic Mean",239 ng/mL
same,Cmax,"po, Moderate Hepatic Impairment, 200 mg single oral dose, read-out: Cmax, Geometric Mean",210 ng/mL
same,Cmax,"po, Moderate Hepatic Impairment, 200 mg single oral dose, read-out: Cmax, Median",180 ng/mL
same,Vd/F,"po, Moderate Hepatic Impairment, 200 mg single oral dose, read-out: VZ/F, Arithmetic Mean",2250 L
same,Vd/F,"po, Moderate Hepatic Impairment, 200 mg single oral dose, read-out: VZ/F, Geometric Mean",2020 L
same,Vd/F,"po, Moderate Hepatic Impairment, 200 mg single oral dose, read-out: VZ/F, Median",2090 L
same,half-life,"po, Moderate Hepatic Impairment, 200 mg single oral dose, read-out: t1/2, Arithmetic Mean (converted)",18.7 ± 3.97 h
